Assay results reported in ChEMBL document CHEMBL5126521, “Analgesic Opioid Ligand Discovery Based on Nonmorphinan Scaffolds Derived from Natural Sources” (J Med Chem, 2022).
Square brackets hold non-standard residues; d marks the D form. Peptide text beside a SMILES is read from it. Sar = CNCC(=O)O

Assays:
[1] = Displacement of [3H]DPDPE from guinea pig brain membrane DOP incubated for 2.5 hr by scintillation counter analysis; type: cell membranes, Cavia porcellus
[2] = Toxicity in sc dosed mouse assessed as antinociceptive activity tolerance; type: organism-based; details: in vivo
[3] = molecular target: Delta-type opioid receptor (Rattus norvegicus, UniProt P33533); assay: Agonist activity at recombinant rat DOP stably expressed in CHO-K1 cell membrane assessed as [35S]GTPgammaS binding; type: functional, cell membranes
[4] = tested on: Mus musculus; assay: Antinociceptive activity in sc dosed mouse; type: functional
[5] = molecular target: T1, Mu-type opioid receptor (Cavia porcellus, UniProt P97266); assay: Displacement of [3H]DAMGO from guinea pig brain membrane MOP incubated for 1 hr by scintillation counter analysis; type: cell membranes
[6] = molecular target: T2, Kappa-type opioid receptor (Cavia porcellus, UniProt P41144); assay: Displacement of [3H]U69593 from guinea pig brain membrane KOP incubated for 1 hr by scintillation counter analysis; type: cell membranes
[7] = molecular target: Mu-type opioid receptor (Rattus norvegicus, UniProt P33535); assay: Agonist activity at recombinant rat MOP stably expressed in CHO-K1 cell membrane assessed as [35S]GTPgammaS binding; type: functional, cell membranes
[8] = tested on: Mus musculus; assay: Antinociceptive activity in po dosed mouse by tail flick assay; type: functional
[9] = Toxicity in po dosed mouse assessed as antinociceptive activity tolerance by tail flick assay; type: organism-based; details: in vivo
[10] = tested on: Mus musculus; assay: Antinociceptive activity in Std-ddY mouse at 100 mmHg pressure administered IT by tail pressure test; type: functional
[11] = tested on: Mus musculus; assay: Antinociceptive activity in Std-ddY mouse at 100 mmHg pressure administered sc by tail pressure test; type: functional
[12] = tested on: Mus musculus; assay: Antinociceptive activity in ddY mouse assessed as tail-flick latency administered icv by tail flick test; type: functional
[13] = tested on: Mus musculus; assay: Antinociceptive activity in ddY mouse assessed as tail-flick latency administered it by tail flick test; type: functional
[14] = tested on: Mus musculus; assay: Antinociceptive activity in Std-ddY mouse at 100 mmHg pressure administered po by tail pressure test; type: functional
[15] = tested on: Mus musculus; assay: Antinociceptive activity in Std-ddY mouse at 100 mmHg pressure administered icv by tail pressure test; type: functional
[16] = organism: Mus musculus; assay: Antinociceptive activity in mouse by tail pressure test; type: functional
[17] = tested on: Mus musculus; assay: Antinociceptive activity in mouse administered IT by tail pressure test; type: functional
[18] = molecular target: T1, Mu-type opioid receptor; assay: (§1) Antagonist activity at guinea pig ileum MOP; type: functional, tissue-based
[19] = tested on: Mus musculus; assay: Antinociceptive activity in mouse administered icv; type: functional
[20] = organism: Rattus norvegicus; assay: Antinociceptive activity in rat; type: functional
[21] = organism: Mus musculus; assay: Antinociceptive activity in mouse by hot plate test
[22] = tested on: Rattus norvegicus; assay: Antinociceptive activity in rat at 2.5 to 5 mg/kg, icv
[23] = tested on: Rattus norvegicus; assay: Antinociceptive activity in rat administered iv; type: functional
[24] = tested on: Mus musculus; assay: Antinociceptive activity in mouse administered sc by tail pressure test; type: functional
[25] = tested on: Mus musculus; assay: Antinociceptive activity in mouse assessed as tail-flick latency administered icv […]; type: functional
[26] = tested on: Mus musculus; assay: Antinociceptive activity in mouse administered icv by tail pressure test; type: functional
[27] = tested on: Rattus norvegicus; assay: Antinociceptive activity in rat administered icv; type: functional
[28] = tested on: Mus musculus; assay: Antinociceptive activity in mouse administered IV; type: functional
[29] = molecular target: T3, Mu-type opioid receptor (Mus musculus, UniProt P42866); assay: Antagonist activity at mouse vas deferns MOP; type: functional
[30] = Toxicity in rat assessed as antinociceptive activity tolerance at 3 to10 nmol/kg measured after 5 days with 62 pmol/h icv infusion relative to control; details: in vivo, icv_or_intrathecal, 120 h, at 10 nmol/kg, time 5 day
[31] = tested on: Mus musculus; assay: Antinociceptive activity in mouse administered iv by hot plate test; type: functional
[32] = molecular target: T3, Mu-type opioid receptor; assay: Antagonist activity at mouse brain homogenate MOP; type: functional, tissue-based
[33] = tested on: Mus musculus; assay: Antinociceptive activity in mechanical allodynia mouse model administered sc; type: functional
[34] = molecular target: T4, Mu-type opioid receptor (Homo sapiens, UniProt P35372); assay: Binding affinity to MOP (unknown origin)
[35] = tested on: Mus musculus; assay: Antinociceptive activity in thermal hyperalgesia mouse model administered sc; type: functional
[36] = molecular target: T5, Delta-type opioid receptor (Homo sapiens, UniProt P41143); assay: Binding affinity to DOP (unknown origin)
[37] = tested on: Rattus norvegicus; assay: Antinociceptive activity in rat administered IT; type: functional
[38] = molecular target: T5, Delta-type opioid receptor; assay: Displacement of [3H]DPDPE from human DOP expressed in CHO-K1 cell membrane incubated for 60 mins by Microscint-counting analysis; type: cell membranes
[39] = molecular target: T4, Mu-type opioid receptor; assay: Displacement of [3H]DAMGO from human MOP expressed in CHO-K1 cell membrane incubated for 60 mins by Microscint-counting analysis; type: cell membranes
[40] = tested on: Rattus norvegicus; assay: Antinociceptive activity in Sprague-Dawley rat assessed as tail flick response in warm water administered po; type: functional
[41] = molecular target: T4, Mu-type opioid receptor; assay: Agonist activity at human MOP expressed in CHO-K1 cell membrane assessed as [35S]GTPgammaS binding; type: functional, cell membranes
[42] = Toxicity in rat assessed as inhibition of gastrointestinal transit at 100 to 300 pmol icv or IT by charcoal meal test; details: in vivo, icv_or_intrathecal, dose 100-300 pmol
[43] = tested on: Mus musculus; assay: Antinociceptive activity in mouse administered IT; type: functional
[44] = molecular target: T2, Kappa-type opioid receptor; assay: Displacement of [3H]U69593 from guinea pig cerebellum KOP by competitive binding assay; type: tissue-based
[45] = Displacement of [3H]DPDPE from calf frontal cortex membrane Delta-type opioid receptor by competitive binding assay; type: cell membranes, Bos taurus
[46] = tested on: Mus musculus; assay: Antinociceptive activity in mouse administered po; type: functional
[47] = molecular target: Mu-type opioid receptor (Cavia porcellus) (UniProt P97266); assay: as §1; type: functional, tissue-based; details: filed as antagonist
[48] = tested on: Rattus norvegicus; assay: Antinociceptive activity in rat administered sc; type: functional
[49] = molecular target: Mu-type opioid receptor (Bos taurus, UniProt P79350); assay: Displacement of [3H]DAMGO from calf thalamus membrane MOP by competitive binding assay; type: cell membranes
[50] = Rattus norvegicus, read-out: ED50

Structure (SMILES): CC[C@@H]1CN2CC[C@]3(O)c4c(ccc(F)c4OC)N[C@@H]3[C@@H]2C[C@@H]1/C(=C\OC)C(=O)OC
- Ki [1]: 7 nM
- ED50 [2]: 0.09 mg/kg
- EC50 [3]: 61 nM
- ED50 [4]: 0.06 mg/kg
- Ki [5]: 2.1 nM
- Ki [6]: 29 nM
- EC50 [7]: 18 nM
- ED50 [8]: 0.26 mg/kg
- ED50 [9]: 0.45 mg/kg

Structure (SMILES): N=C(N)NCCC[C@@H](NC(=O)[C@@H](N)Cc1ccc(O)cc1)C(=O)N[C@@H](Cc1ccccc1)C(=O)NCCC(=O)O
- ED50 [10]: 0.5 pmol
- ED50 [11]: 0.8 µmol/kg
- ED50 [12]: 1.3 pmol
- ED50 [13]: 0.3 pmol
- ED50 [14]: 70.1 µmol/kg
- ED50 [15]: 3.1 pmol

Structure (SMILES): N=C(N)NCCC[C@@H](NC(=O)[C@@H](N)Cc1ccc(O)cc1)C(=O)N[C@@H](Cc1ccccc1)C(=O)NCC(=O)O (H-Y[dR]FG-OH)
- ED50 [16]: 5.8 pmol
- ED50 [17]: 1 pmol
- IC50 [18]: 10.8 nM
- ED50 [19]: 10.3 pmol

Structure (SMILES): CN1CC[C@]23c4c5ccc(O)c4O[C@H]2[C@@H](O)C=C[C@H]3[C@H]1C5 [MORPHINE]
- ED50 ([16]; Mus musculus, read-out: ED50): 77.2 µmol/kg
- ED50 [17]: 0.72 pmol
- ED50 [20, 50]: 5.8 µmol/kg
- ED50 [21]: 11.3 µmol/kg
- ED50 [22]: 169 µmol/kg
- ED50 [23]: 1.6 µmol/kg
- ED50 [24]: 12.2 µmol/kg
- ED50 [25]: 17.3 nmol
- ED50 [26]: 1.05 nmol
- ED50 [19]: 8700 pmol

Structure (SMILES): C[C@@H](NC(=O)[C@@H](N)Cc1ccc(O)cc1)C(=O)N[C@@H](Cc1ccccc1)C(=O)NCC(=O)N[C@@H](Cc1ccc(O)cc1)C(=O)N1CCC[C@H]1C(=O)N[C@@H](CO)C(N)=O [DERMORPHIN]
- ED50 [27]: 23 pmol
- ED50 ([16]; Mus musculus, read-out: ED50): 4.6 µmol/kg
- ED50 [28]: 0.46 µmol/kg
- ED50 [20, 50]: 1.5 µmol/kg
- IC50 [29]: 16.5 nM
- Activity [30]: 63%
- IC50 [18]: 1.1 nM
- ED50 [31]: 1 µmol/kg
- IC50 [32]: 0.76 nM
- ED50 [19]: 6.7 pmol

Structure (SMILES): NCCCC[C@H](NC(=O)[C@H](Cc1ccccc1)NC(=O)[C@@H](CCCN=C(N)N)NC(=O)[C@@H](N)Cc1ccc(O)cc1)C(N)=O
- ED50 [33]: 4.2 pmol
- Ki [34]: 0.14 nM
- IC50 [29]: 781 nM
- ED50 [35]: 0.06 pmol
- Ki [36]: 19200 nM
- ED50 [37]: 2.37 pmol

Structure (SMILES): NC(=O)[C@@H]1CCCCNC(=O)CC[C@@H](NC(=O)[C@@H](N)Cc2ccc(O)cc2)C(=O)N[C@@H](Cc2ccccc2)C(=O)N[C@@H](Cc2ccccc2)C(=O)N1
- Ki [38]: 82 nM
- Ki [39]: 0.96 nM
- ED50 [40]: 3.5 µmol
- EC50 [41]: 1.5 nM

Structure (SMILES): CN(CC(=O)O)C(=O)[C@H](Cc1ccccc1)NC(=O)[C@@H](CCCN=C(N)N)NC(=O)[C@@H](N)Cc1ccc(O)cc1 (H-Y[dR]F[Sar]-OH)
- ED50 [42]: 0.053 mg/kg
- ED50 [43]: 4.5 pmol
- Ki [44]: > 10000 nM
- ED50 [20]: 4.1 pmol
- Ki [45]: 562 nM
- ED50 [23]: 0.8 µmol/kg
- ED50 [46]: 26 µmol/kg
- IC50 [18]: 6.9 nM
- IC20 [47]: 21 nM
- ED50 [48]: 0.61 mg/kg
- ED50 [37]: 18 pmol
- Ki [49]: 0.5 nM
